{"source": "ChEMBL document CHEMBL1133049", "about": "“Expeditious synthesis and cytotoxic activity of new cyanoindolo[3,2-c]quinolines and benzimidazo[1,2-c]quinazolines” (Bioorg Med Chem Lett, 2000)", "key": {"HT-29": {"test_system": "HT-29", "assay": "Cytotoxicity of compound was evaluated on the HT-29 cell line", "assay_type": "functional, cell-based", "conditions": "Homo sapiens"}, "L1210 [1]": {"test_system": "L1210", "assay": "Antiproliferative activity of compound was assessed using the murine L1210 leukemia cell line", "assay_type": "functional, cell-based", "conditions": "Mus musculus"}, "L1210 [2]": {"test_system": "L1210", "assay": "Percent perturbations evaluated at 10 uM induced on L1210 cells in the >G2+M (8N) phase of cell cycle; inactive", "assay_type": "functional, cell-based", "conditions": "Mus musculus"}, "L1210 [3]": {"test_system": "L1210", "assay": "Percent perturbations evaluated at 10 uM induced on L1210 cells in the G2+M phase of cell cycle", "assay_type": "functional, Mus musculus"}, "L1210 [4]": {"test_system": "L1210", "assay": "Percent perturbations evaluated at 10 uM induced on L1210 cells in the >G2+M (8N) phase of cell cycle", "assay_type": "functional, Mus musculus"}}, "note": "Activity calls are given as the source filed them. The rule behind the calls is not given here."}
{"compound": "N#Cc1nc2ccccc2c2nc3ccccc3n12", "values": [{"measurement": "IC50", "setting": "HT-29", "result": 5.2, "unit": "µM"}, {"measurement": "IC50", "setting": "L1210 [1]", "result": 5.4, "unit": "µM"}, {"measurement": "Perturbations", "setting": "L1210 [2]", "result": "inactive"}, {"measurement": "Perturbations", "setting": "L1210 [3]", "result": 61, "unit": "%"}]}
{"compound": "Cn1c2ccccc2c2c(C#N)nc3ccccc3c21", "values": [{"measurement": "IC50", "setting": "L1210 [1]", "result": 58.8, "unit": "µM"}]}
{"compound": "N#Cc1[nH]c2ccccc2c2nc3ccccc3c1-2", "values": [{"measurement": "IC50", "setting": "L1210 [1]", "result": "> 100", "unit": "µM"}]}
{"compound": "CN(C)CCn1c2ccccc2c2c(C#N)nc3ccccc3c21", "values": [{"measurement": "IC50", "setting": "HT-29", "result": 0.68, "unit": "µM"}, {"measurement": "Perturbations", "setting": "L1210 [4]", "result": 21, "unit": "%"}, {"measurement": "IC50", "setting": "L1210 [1]", "result": 3.1, "unit": "µM"}, {"measurement": "Perturbations", "setting": "L1210 [3]", "result": 50, "unit": "%"}]}
{"compound": "c1ccc2c(c1)ncn1c3ccccc3nc21", "values": [{"measurement": "IC50", "setting": "L1210 [1]", "result": "> 100", "unit": "µM"}]}
